{
  "source": "patent US7181271B2",
  "about": "“Synergism of photodynamic and electropermeation effect on cell vitality as a novel cytotoxic agent” (Genetronics, Inc., priority 2003, dated 2007)",
  "key": {"[1]": {"system": "U937 cells", "test": "Cell viability by trypan blue exclusion after electroporation (250 V, 400 F) and 14 min irradiation", "format": "cell-based", "conditions": "for Total dead cells for exp. / Dead cells by pulse / Dead cells by light for control: 1 × 10^−5 M agent, 18–22 C; for Total dead cells for exp. / Dead cells by pulse / Dead cells by light for control / Final dead cells: exp/control: U937 cells; for Total dead cells for exp.: pulse 250 V plus 14 min irradiation; for Dead cells by pulse: single pulse 250 V (1.2 kV/cm), 400 F, 11–12 ms, 14 min irradiation; for Dead cells by light for control: unpulsed control, irradiated 14 min; for Final dead cells: exp/control: ratio of total dead cells (pulse + light) to dead cells by light only, 1 × 10^−5 M"}, "[2]": {"conditions": "type 1 photoreaction; cited from earlier work"}},
  "data": [
    {"smiles": "COc1cccc2c1C(=O)c1c(O)c3c(c(O)c1C2=O)C[C@@](O)(C(C)=O)C[C@@H]3O[C@H]1C[C@H](N)[C@H](O)[C@H](C)O1", "note": "[DAM, daunomycin]", "values": [
      {"measurement": "Total dead cells for exp.", "setting": "[1]", "result": 87.5, "unit": "%"},
      {"measurement": "Dead cells by pulse", "setting": "[1]", "result": 63.4, "unit": "%"},
      {"measurement": "Dead cells by light for control", "setting": "[1]", "result": 17.6, "unit": "%"},
      {"measurement": "Final dead cells: exp/control", "setting": "[1]", "result": 4.9},
      {"measurement": "penetration and dark effect (without irradiation)", "setting": "[1]; unpulsed U937 cells, without irradiation", "result": "increases with time"}
    ]},
    {"smiles": "C=CC1=C(C)c2cc3[nH]c(cc4nc(cc5[nH]c(cc1n2)c(C)c5CCC(=O)O)C(CCC(=O)O)=C4C)c(C)c3C=C", "note": "[PP, protoporphyrin]", "values": [
      {"measurement": "Total dead cells for exp.", "setting": "[1]", "result": 91.6, "unit": "%"},
      {"measurement": "Dead cells by pulse", "setting": "[1]", "result": 65.8, "unit": "%"},
      {"measurement": "Dead cells by light for control", "setting": "[1]", "result": 18.8, "unit": "%"},
      {"measurement": "Final dead cells: exp/control", "setting": "[1]", "result": 4.9}
    ]},
    {"smiles": "CN(C)c1ccc2cc3ccc(=[N+](C)C)cc-3sc2c1.[Cl-]", "note": "[TP, thiopyronin]", "values": [
      {"measurement": "Total dead cells for exp.", "setting": "[1]", "result": 98.6, "unit": "%"},
      {"measurement": "Dead cells by pulse", "setting": "[1]", "result": 80.3, "unit": "%"},
      {"measurement": "Dead cells by light for control", "setting": "[1]", "result": 20.1, "unit": "%"},
      {"measurement": "Final dead cells: exp/control", "setting": "[1]", "result": 4.9},
      {"measurement": "rate constant of oxidizing guanosine", "setting": "[2]", "result": "3.8e+06", "unit": "M⁻¹ s⁻¹"}
    ]}
  ]
}
